Source: patent publication US9328111B2, “Substituted cycloocta[5,6]pyrido[4,3,2-de]phthalazines as PARP inhibitors” (BeiGene Ltd., priority 2011, dated 2016)
pEC50: −log10 of the molar value.

system: PARP PARylation in HeLa cells; assay: PARylation assay in HeLa cells after H2O2; assay type: cell-based; conditions: Homo sapiens, 200 μM H2O2
Experimental: HeLa cells were seeded into a 96-well plate with clear bottom and black wall at an initial concentration of 5000 cells/well in culture medium (100 μL of DMEM containing 10% FBS, 0.1 mg/mL penicillin-streptomycin, and 2 mML-glutamine). The plates were incubated for 4 h at 37° C. under 5% CO2 atmosphere, and then compounds were added with serial dilutions over eight points over a 0.01 nM-10 μM final concentration range in 0.1% DMSO/culture medium. The plate was then incubated for 18 h at 37° C. in 5% CO2. Then DNA damage was provoked by addition of 60 μL of H2O2 solution in PBS (final concentration 200 μM). As a negative control, cells untreated with H2O2 were used. The plate was kept at 37° C. for 5 min. Then the medium was gently removed by plate inversion, and the cells were fixed by addition of ice-cold MeOH (100 μL/well) and kept at −20° C. for 20 min. After removal of the fixative by plate inversion and washing 10 times with PBS (120 μL), the detection buffer (50 μL/well, containing PBS, Tween (0.1%), and BSA (1 mg/mL)) together with the primary PAR mAb (Alexis ALX-804-220, 1:2000), the secondary anti-mouse Alexa Fluor 488 antibody (MolecularProbes A11029, 1:2000), and nuclear dye DAPI (Molecular Probes D3571, 150 nM) were added. Following overnight incubation at 4° C. in the dark, removal of the solution, and washing 6 times with PBS (120 μL), the plate was read on an ArrayScan VTI (ThermoFisher). Monitoring for PAR polymer was by detection of Alexa488 at XF100_485_20, exposure time of 0.05 s, and identification of the nuclei was by tracking DAPI with XF100_386_23, exposure time of 0.01 s. The mean value of total intensity of cells was calculated by measuring the average of total intensity of nuclei over the total number of DAPI-labeled nuclei. The EC50 was determined on the basis of the residual enzyme activity in the presence of increasing PARPi concentration.

| Structure (SMILES) | pEC50 |
| --- | --- |
| O=c1[nH]nc2c3c(c(Br)ccc13)NC1=C2CCCC1 [Example 7, 6-Bromo-8,9,10,11-tetrahydro-2H-pyridazino[5,4,3-kl]acridin-3(7H)-one] | 7.49 |
| CC1(C(=O)N2CCC3=C(C2)Nc2cccc4c(=O)[nH]nc3c24)CC1 [Example 16, 9-(1-Methylcyclopropanecarbonyl)-8,9,10,11-tetrahydro-2H-phthalazino[8,1-bc][1,7]naphthyridin-3(7H)-one] | 8.27 |
| O=c1[nH]nc2c3c(c(Cl)ccc13)NC1=C2CCCCC1 [Example 8, 6-Chloro-7,8,9,10,11,12-hexahydrocyclohepta[5,6]pyrido[4,3,2-de]phthalazin-3(2H)-one] | 7.36 |
| O=c1[nH]nc2c3c(cccc13)NC1=C2c2ccccc2CC1 [Example 12, 8,9-Dihydro-2H-benzo[a]pyridazino[5,4,3-kl]acridin-3(7H)-one] | 8.17 |
| CC(C)(C)OC(=O)N1CCC2=C(C1)Nc1cccc3c(=O)[nH]nc2c13 [Example 13, Tert-butyl 3-oxo-7,8,10,11-tetrahydro-2H-phthalazino[8,1-bc][1,7]naphthyridine-9(3H)-carboxylate] | 9.15 |
| O=c1[nH]nc2c3c(cccc13)NC1=C2CCCC1 [Example 2, 8,9,10,11-Tetrahydro-2H-pyridazino[5,4,3-kl]acridin-3 (7H)-one] | 8.92 |
| CC(C)(NC(=O)OCc1ccccc1)C(=O)N1CCC2=C(C1)Nc1cccc3c(=O)[nH]nc2c13 [Example 15, Benzyl(2-methyl-1-oxo-1-(3-oxo-10,11-dihydro-2H-phthalazino[8,1-bc][1,7]naphthyridin-9(3H,7H,8H)-yl)propan-2-yl)carbamate] | 6.57 |
| O=c1[nH]nc2c3c(c(Cl)ccc13)NC1=C2CCCC1 [Example 9, 6-Chloro-8,9,10,11-tetrahydro-2H-pyridazino[5,4,3-kl]acridin-3(7H)-one] | 7.36 |
| CC1(C)C(C(=O)N2CCC3=C(C2)Nc2cccc4c(=O)[nH]nc3c24)C1(C)C [Example 17, 9-(2,2,3,3-Tetramethylcyclopropanecarbonyl)-8,9,10,11-tetrahydro-2H-phthalazino[8,1-bc][1,7]naphthyridin-3(7H)-one] | 9.05 |
| O=c1[nH]nc2c3c(cccc13)NC1=C2CCNC1 [Example 14, 8,9,10,11-Tetrahydro-2H-phthalazino[8,1-bc][1,7]naphthyridin-3 (7H)-one] | 7.85 |
| O=c1[nH]nc2c3c(cccc13)NC1=C2CCN(Cc2ccccc2)C1 [Example 18, 9-benzyl-8,9,10,11-tetrahydro-2H-phthalazino[8,1-bc][1,7]naphthyridin-3(7H)-one] | 8.01 |

Further compounds by rising pEC50, results first:

| pEC50 | Structure (SMILES) |
| --- | --- |
| 6.32 | Cc1ccc2c(=O)[nH]nc3c2c1NC1=C3CCCC1 [Example 5, 6-Methyl-8,9,10,11-tetrahydro-2H-pyridazino[5,4,3-kl]acridin-3(7H)-one] |
| 6.86 | O=c1[nH]nc2c3c(c(Br)ccc13)NC1=C2CCCCC1 [Example 6, 6-Bromo-7,8,9,10,11,12-hexahydrocyclohepta[5,6]pyrido[4,3,2-de]phthalazin-3(2H)-one] |
| 8.34 | O=c1[nH]nc2c3c(cccc13)NC1=C2CCC1 [Example 10, 7,8,9,10-Tetrahydrocyclopenta[5,6]pyrido[4,3,2-de]phthalazin-3(2H)-one] |
| 9.10 | CC1(C)CCC2=C(C1)c1n[nH]c(=O)c3cccc(c13)N2 [Example 1, 10,10-Dimethyl-8,9,10,11-tetrahydro-2H-pyridazino[5,4,3-kl]acridin-3(7H)-one] |
| 9.12 | O=c1[nH]nc2c3c(cccc13)NC1=C2CCCCC1 [Example 4, 7,8,9,10,11,12-Hexahydrocyclohepta[5,6]pyrido[4,3,2-de]phthalazin-3(2H)-one] |
| 9.22 | O=c1[nH]nc2c3c(cccc13)NC1=C2CCCCCC1 [Example 3, 8,9,10,11,12,13-Hexahydro-2H-cycloocta[5,6]pyrido[4,3,2-de]phthalazin-3(7H)-one] |

target: Tankyrase-2 (Homo sapiens (Human), UniProt Q9H2K2); assay: biochemical; conditions: read-out: Tankyrase-2 Inhibition @ 50 nM
Sequence (Q9H2K2 whole entry): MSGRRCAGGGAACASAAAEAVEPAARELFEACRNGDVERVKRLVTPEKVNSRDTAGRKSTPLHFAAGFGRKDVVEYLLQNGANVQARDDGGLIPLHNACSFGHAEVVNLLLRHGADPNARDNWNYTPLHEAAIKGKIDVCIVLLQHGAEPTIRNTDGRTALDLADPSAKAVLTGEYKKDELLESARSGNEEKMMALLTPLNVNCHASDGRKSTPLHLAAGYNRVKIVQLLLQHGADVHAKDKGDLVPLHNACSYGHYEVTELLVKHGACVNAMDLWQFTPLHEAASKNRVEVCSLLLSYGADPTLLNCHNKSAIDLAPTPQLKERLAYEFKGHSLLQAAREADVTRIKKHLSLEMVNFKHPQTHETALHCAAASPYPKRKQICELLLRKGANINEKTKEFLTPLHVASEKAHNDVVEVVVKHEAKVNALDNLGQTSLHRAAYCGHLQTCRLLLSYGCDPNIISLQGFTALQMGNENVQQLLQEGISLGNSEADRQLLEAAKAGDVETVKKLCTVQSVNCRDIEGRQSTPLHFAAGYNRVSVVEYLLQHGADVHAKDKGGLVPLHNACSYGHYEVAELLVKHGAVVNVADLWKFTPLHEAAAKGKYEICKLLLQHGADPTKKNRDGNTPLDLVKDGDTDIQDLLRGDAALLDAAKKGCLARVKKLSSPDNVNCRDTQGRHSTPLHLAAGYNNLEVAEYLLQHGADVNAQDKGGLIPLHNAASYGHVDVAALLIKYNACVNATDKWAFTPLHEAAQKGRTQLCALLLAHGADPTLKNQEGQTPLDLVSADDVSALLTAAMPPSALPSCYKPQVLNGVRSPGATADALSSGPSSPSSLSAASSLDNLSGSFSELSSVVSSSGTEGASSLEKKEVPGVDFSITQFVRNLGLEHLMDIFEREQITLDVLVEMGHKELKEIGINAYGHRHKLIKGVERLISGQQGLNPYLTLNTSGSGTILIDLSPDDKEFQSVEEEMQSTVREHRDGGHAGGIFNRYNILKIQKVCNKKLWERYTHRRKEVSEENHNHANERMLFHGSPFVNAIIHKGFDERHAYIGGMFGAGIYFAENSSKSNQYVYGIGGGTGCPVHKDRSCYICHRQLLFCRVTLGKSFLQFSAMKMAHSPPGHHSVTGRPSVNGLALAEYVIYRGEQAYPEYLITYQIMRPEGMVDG

| inhibition at 0.05 µM [%] | Structure (SMILES) |
| --- | --- |
| 2.3 | O=c1[nH]nc2c3c(c(Cl)ccc13)NC1=C2CCCCC1 [Example 8, 6-Chloro-7,8,9,10,11,12-hexahydrocyclohepta[5,6]pyrido[4,3,2-de]phthalazin-3(2H)-one] |
| 14.3 | O=c1[nH]nc2c3c(cccc13)NC1=C2c2ccccc2CC1 [Example 12, 8,9-Dihydro-2H-benzo[a]pyridazino[5,4,3-kl]acridin-3(7H)-one] |
| 14.1 | O=c1[nH]nc2c3c(c(Cl)ccc13)NC1=C2CCCC1 [Example 9, 6-Chloro-8,9,10,11-tetrahydro-2H-pyridazino[5,4,3-kl]acridin-3(7H)-one] |
